Measurements taken from PubChem BioAssay (NCI).
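96-well plates; 48 h exposure; 5 concentrations. Endpoints by linear interpolation between flanking doses. Not reached: highest tested concentration assigned. At the TGI there is no net growth.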

What was measured:
Test in all cases: DTP human tumour cell line panel, 48 h
MOLT-4 leukemia = system: MOLT-4 leukemia
SW-620 colon = system: SW-620 colon
UO-31 renal = system: UO-31 renal
MALME-3M melanoma = system: MALME-3M melanoma
RPMI-8226 leukemia = system: RPMI-8226 leukemia
CAKI-1 renal = system: CAKI-1 renal
SK-OV-3 ovarian = system: SK-OV-3 ovarian
UACC-62 melanoma = system: UACC-62 melanoma
NCI-H23 lung = system: NCI-H23 lung
DMS 114 small cell lung = system: DMS 114 small cell lung
HCT-116 colon = system: HCT-116 colon
HCC-2998 colon = system: HCC-2998 colon
KM12 colon = system: KM12 colon
CCRF-CEM leukemia = system: CCRF-CEM leukemia
HOP-62 NSCLC = system: HOP-62 NSCLC
K-562 leukemia = system: K-562 leukemia
IGROV1 ovarian = system: IGROV1 ovarian
SK-MEL-5 melanoma = system: SK-MEL-5 melanoma
SN12C renal = system: SN12C renal
OVCAR-4 ovarian = system: OVCAR-4 ovarian
KM20L2 colon = system: KM20L2 colon
HL-60(TB) leukemia = system: HL-60(TB) leukemia
ACHN renal = system: ACHN renal
SNB-75 CNS = system: SNB-75 CNS
M19-MEL melanoma = system: M19-MEL melanoma
RXF-631 renal = system: RXF-631 renal
SNB-78 CNS = system: SNB-78 CNS
DLD-1 colon = system: DLD-1 colon
A549 NSCLC = system: A549 NSCLC
RXF 393 renal = system: RXF 393 renal
SK-MEL-28 melanoma = system: SK-MEL-28 melanoma
786-0 renal = system: 786-0 renal
UACC-257 melanoma = system: UACC-257 melanoma
SK-MEL-2 melanoma = system: SK-MEL-2 melanoma
NCI-H460 lung = system: NCI-H460 lung
OVCAR-8 ovarian = system: OVCAR-8 ovarian
HCT-15 colon = system: HCT-15 colon
EKVX NSCLC = system: EKVX NSCLC
M14 melanoma = system: M14 melanoma
A498 renal = system: A498 renal
DMS 273 small cell lung = system: DMS 273 small cell lung
LXFL 529 NSCLC = system: LXFL 529 NSCLC
NCI-H226 lung = system: NCI-H226 lung
OVCAR-5 ovarian = system: OVCAR-5 ovarian
U251 CNS = system: U251 CNS
SF-539 CNS = system: SF-539 CNS
OVCAR-3 ovarian = system: OVCAR-3 ovarian
TK-10 renal = system: TK-10 renal
NCI-H522 lung = system: NCI-H522 lung
HT29 colon = system: HT29 colon
HOP-92 NSCLC = system: HOP-92 NSCLC
HOP-18 NSCLC = system: HOP-18 NSCLC
SR leukemia = system: SR leukemia
SF-295 CNS = system: SF-295 CNS
COLO 205 colon = system: COLO 205 colon
SF-268 CNS = system: SF-268 CNS

Compound `OCc1c[te]c(-c2ccccc2)c1` has a TGI (MOLT-4 leukemia) of over 100 µM, a TGI (SW-620 colon) of over 100 µM and a TGI (UO-31 renal) of 79.4 µM. It also gave a TGI (MALME-3M melanoma) of over 100 µM, a TGI (RPMI-8226 leukemia) of 86.8 µM and a TGI (CAKI-1 renal) of over 100 µM. It also gave a TGI (SK-OV-3 ovarian) of over 100 µM, a TGI (UACC-62 melanoma) of over 100 µM and a TGI (NCI-H23 lung) of 62.8 µM. The TGI (DMS 114 small cell lung) was 91.7 µM, the TGI (HCT-116 colon) was 33.3 µM and the TGI (HCC-2998 colon) was over 100 µM. The TGI (KM12 colon) was over 100 µM, the TGI (CCRF-CEM leukemia) was over 100 µM and the TGI (HOP-62 NSCLC) was over 100 µM. The TGI (K-562 leukemia) was over 100 µM, the TGI (IGROV1 ovarian) was over 100 µM and the TGI (SK-MEL-5 melanoma) was over 100 µM. It also gave a TGI (SN12C renal) of 78.7 µM, a TGI (OVCAR-4 ovarian) of over 100 µM and a TGI (KM20L2 colon) of over 100 µM. It also gave a TGI (HL-60(TB) leukemia) of 45.1 µM, a TGI (ACHN renal) of over 100 µM and a TGI (SNB-75 CNS) of over 100 µM. The TGI (M19-MEL melanoma) was over 100 µM, the TGI (RXF-631 renal) was over 100 µM and the TGI (SNB-78 CNS) was over 100 µM. It also gave a TGI (DLD-1 colon) of over 100 µM, a TGI (A549 NSCLC) of over 100 µM and a TGI (RXF 393 renal) of over 100 µM. The TGI (SK-MEL-28 melanoma) was over 100 µM, the TGI (786-0 renal) was over 100 µM and the TGI (UACC-257 melanoma) was over 100 µM. For the same compound, the TGI (SK-MEL-2 melanoma) was 85.5 µM, the TGI (NCI-H460 lung) was over 100 µM and the TGI (OVCAR-8 ovarian) was over 100 µM. It also gave a TGI (HCT-15 colon) of over 100 µM, a TGI (EKVX NSCLC) of over 100 µM and a TGI (M14 melanoma) of over 100 µM. It also gave a TGI (A498 renal) of over 100 µM, a TGI (DMS 273 small cell lung) of over 100 µM and a TGI (LXFL 529 NSCLC) of over 100 µM. For the same compound, the TGI (NCI-H226 lung) was 85.1 µM, the TGI (OVCAR-5 ovarian) was over 100 µM and the TGI (U251 CNS) was over 100 µM. The TGI (SF-539 CNS) was 78.3 µM, the TGI (OVCAR-3 ovarian) was 30.2 µM and the TGI (TK-10 renal) was over 100 µM.

`CC1(c2ccccc2)CC(c2cccc([N+](=O)[O-])c2)=NO1` (stereo unspecified) was tested, and the TGI (NCI-H522 lung) was over 100 µM, the TGI (MOLT-4 leukemia) was over 100 µM and the TGI (SW-620 colon) was over 100 µM. It also gave a TGI (UO-31 renal) of over 100 µM, a TGI (MALME-3M melanoma) of over 100 µM and a TGI (RPMI-8226 leukemia) of over 100 µM. The TGI (HT29 colon) was over 100 µM, the TGI (SK-OV-3 ovarian) was over 100 µM and the TGI (NCI-H23 lung) was over 100 µM. It also gave a TGI (DMS 114 small cell lung) of over 100 µM, a TGI (HCT-116 colon) of over 100 µM and a TGI (HCC-2998 colon) of over 100 µM. It also gave a TGI (KM12 colon) of over 100 µM, a TGI (HOP-62 NSCLC) of over 100 µM and a TGI (HOP-92 NSCLC) of over 100 µM. For the same compound, the TGI (IGROV1 ovarian) was over 100 µM, the TGI (SK-MEL-5 melanoma) was over 100 µM and the TGI (SN12C renal) was over 100 µM. For the same compound, the TGI (HOP-18 NSCLC) was over 100 µM, the TGI (OVCAR-4 ovarian) was over 100 µM and the TGI (ACHN renal) was over 100 µM. For the same compound, the TGI (SNB-75 CNS) was over 100 µM, the TGI (M19-MEL melanoma) was over 100 µM and the TGI (RXF-631 renal) was over 100 µM. For the same compound, the TGI (SNB-78 CNS) was over 100 µM, the TGI (DLD-1 colon) was over 100 µM and the TGI (A549 NSCLC) was over 100 µM. For the same compound, the TGI (SK-MEL-28 melanoma) was over 100 µM, the TGI (786-0 renal) was over 100 µM and the TGI (UACC-257 melanoma) was over 100 µM. It also gave a TGI (SK-MEL-2 melanoma) of over 100 µM, a TGI (NCI-H460 lung) of over 100 µM and a TGI (SR leukemia) of over 100 µM. It also gave a TGI (OVCAR-8 ovarian) of over 100 µM, a TGI (HCT-15 colon) of over 100 µM and a TGI (M14 melanoma) of over 100 µM. The TGI (SF-295 CNS) was over 100 µM, the TGI (COLO 205 colon) was over 100 µM and the TGI (A498 renal) was over 100 µM. For the same compound, the TGI (DMS 273 small cell lung) was over 100 µM, the TGI (LXFL 529 NSCLC) was over 100 µM and the TGI (NCI-H226 lung) was over 100 µM. For the same compound, the TGI (OVCAR-5 ovarian) was over 100 µM, the TGI (U251 CNS) was over 100 µM and the TGI (SF-539 CNS) was over 100 µM. For the same compound, the TGI (OVCAR-3 ovarian) was over 100 µM, the TGI (TK-10 renal) was over 100 µM and the TGI (SF-268 CNS) was over 100 µM.
